Five molecules from patent US11713309B2, “Solid forms of Cerdulatinib” (Alexion Pharmaceuticals, Inc., priority 2018, dated 2023) can be followed below.

Structures can show the parent of a compound that is named as a salt. A value given as a limit tells only on which side of the number the result lay.

Common to all, as to assay type: physicochemical
Series [1] can be described thus: Slurry competition of free base forms. The conditions noted are these: from 5° C. to 50° C. As for the experimental part: Slurry competition was performed to evaluate the stability of Compound I free base Form II and Type E. A mixture of Compound I free base Form II and Type E were added into 1.0 mL of saturated EtOH or MEK solution (slurry of Form I at 5° C./RT/50° C. overnight). The suspensions were stirred at target temperatures.
Slurry competition was performed to evaluate the stability of free base Form I and Form II. A mixture of free base Form I and Form II were added into 1.0 mL of saturated EtOH or MEK solution (slurry of Form I at 5° C./RT/50° C. overnight). The suspensions were stirred at target temperatures for 3 days.

Series [2] is described as follows: Gravimetric vapor sorption (GVS) hygroscopicity. The conditions noted are these: above about 40% RH, most markedly above about 80% RH. The protocol: Sorption isotherms were obtained using a Hiden Isochema moisture sorption analyser (model IGAsorp), controlled by IGAsorp Systems Software v6.50.48. The sample was maintained at a constant temperature (25° C.) by the instrument controls. The humidity was controlled by mixing streams of dry and wet nitrogen, with a total flow of 250 mL·min^−1. The instrument was verified for relative humidity content by measuring three calibrated Rotronic salt solutions (10-50-88%). The weight change of the sample was monitored as a function of humidity by a microbalance (accuracy+/−0.005 mg). A defined amount of sample was placed in a tared mesh stainless steel basket under ambient conditions. A full experimental cycle consisted of two scans (sorption and desorption) at a constant temperature (25° C.) and 10% RH intervals over a 10-90% range (90 minutes for each humidity level).
The hygroscopicity of the esylate, mesylate, HCl, and sulfate salts/co-crystals of Compound I formed via the first scale up process was analyzed. All hygroscopicity experiments covered a wide range of humidity (0 to about 90% relative humidity) and were performed at about 25° C. to assess behavior.

A short description of series [3]: Moisture uptake study of Compound I HCl amorphous at ambient conditions.
A short description of series [4]: Thermodynamic pH-solubility profile. The following applies: 7 days of shaking, about 37° C. water bath. The source says:
A thermodynamic pH-solubility profile of Compound I HCl Form I in various buffer or non-buffer solutions is further provided in FIG. 61. FIG. 61 additionally includes the thermodynamic pH-solubility profile of Compound I free base. It is of note that no data is shown in the profile of Compound I free base below a pH of about 2.0, as Compound I free base converted to Compound I HCl Form I below a pH of about 2.0. Similarly, no data is shown in the profile of Compound I HCl Form I above a pH of about 3.0, as Compound I HCl Form I converted to Compound I free base above a pH of about 3.0.

A short description of series [5]: Thermodynamic aqueous solubility by HPLC. The conditions noted are these: HPLC grade water, 25° C., 24 hours, second scale up material. As for the experimental part:
The suspension was equilibrated at 25° C. for 24 hours. The suspension was then passed through a filter into an HPLC vial. The filtrate was then diluted by an appropriate factor. Quantification was executed by HPLC with reference to a standard solution of approximately 1 mg·mL^−1 in acetonitrile:water (1:1). Different volumes of the standard, diluted and undiluted sample solutions were injected. […] HPLC method parameters are described in Table 1 and Table 2.
Analysis was performed on an Agilent 1100 series liquid chromatography, equipped with a UV detector (DAD or VWD) @ 254 nm and using Chemstation Rev.B.01.03 software for data processing.
(§1) The solubility of the salts/co-crystals of Compound I prepared from the second scale up process was analyzed. The materials recovered after the solubility analysis were evaluated by XRPD to observe any form changes.

The nature of series [6]: XRPD form evaluation of materials recovered after solubility analysis. The following applies: aqueous solubility analysis, second scale up material. As for the experimental part:
as §1

Series [7] can be described thus: Slurry maturations in various solvents (form reproducibility/stability). The following applies: cycling about 25 to about 50° C., about 4 days. The protocol: A series of slurry maturations in various solvents was performed to further analyze the form reproducibility/stability of the esylate, mesylate, HCl, and sulfate salts/co-crystals of Compound I. The solvents chosen were acetonitrile, EtOAc, ethanol, and IPA. The input materials were the salts/co-crystals of Compound I formed via the second scale up process. About 20 mg of each sample was charged to reflux tubes and heated with temperature cycling between about 25 and about 50° C. for about 4 days. The resulting materials were isolated by filtration and dried in vacuo at about 40° C. The results of the slurry maturations for the resulting HCl and mesylate salts/co-crystals are presented in subsections (a)-(d) below. The data for the resulting esylate and sulfate salts/co-crystals of Compound have been omitted due to notable form variation.

As for `CCS(=O)(=O)N1CCN(c2ccc(Nc3ncc(C(N)=O)c(NC4CC4)n3)cc2)CC1` [Compound I Form II, 4-(cyclopropylamino)-2-(4-(4-(ethylsulfonyl)piperazin-1-yl)phenylamino)pyrimidine-5-carboxamide], in series [1], the “Relative thermodynamic stability (slurry competition with Form I)” value is reported as “more thermodynamically stable” and the “Relative thermodynamic stability (slurry competition with Type E)” value is on record as “more thermodynamically stable than Type E”.

Take `CCS(=O)(=O)N1CCN(c2ccc(Nc3ncc(C(N)=O)c(NC4CC4)n3)cc2)CC1` [Compound I HCl amorphous, 4-(cyclopropylamino)-2-(4-(4-(ethylsulfonyl)piperazin-1-yl)phenylamino)pyrimidine-5-carboxamide]: in series [2], the GVS mass change entry is given as “large increase in mass”. In series [3], the “Crystallinity on exposure to ambient conditions” value is “gradual increase in crystallinity”.

Take `CCS(=O)(=O)N1CCN(c2ccc(Nc3ncc(C(N)=O)c(NC4CC4)n3)cc2)CC1` [Compound I, 4-(cyclopropylamino)-2-((4-(4-(ethylsulfonyl)piperazin-1-yl)phenyl)amino)pyrimidine-5-carboxamide]: the “pH range in which Compound I free base converted to Compound I HCl Form I” value in series [4] is under 2.0.

Take `CCS(=O)(=O)N1CCN(c2ccc(Nc3ncc(C(N)=O)c(NC4CC4)n3)cc2)CC1` [Compound I mesylate Form III, 4-(cyclopropylamino)-2-(4-(4-(ethylsulfonyl)piperazin-1-yl)phenylamino)pyrimidine-5-carboxamide]: the solubility (usually the concentration that dissolves in the medium under given conditions) in series [5] (listed as Comp. I Mesylate Similar to Form III) is 2320 µg/mL. For the same molecule, the “Form change on solubility analysis (XRPD post vs pre)” value in series [6] is listed as “same form, which is different than the forms of either input material”. Further, the “Form after slurry maturation (XRPD)” value in series [7] (acetonitrile, EtOAc, ethanol, IPA, listed as Compound I mesylate (mono-mesylate) Form III) is “mixture of forms comprising Compound I mesylate Form III and other forms”.

With `CCS(=O)(=O)N1CCN(c2ccc(Nc3ncc(C(N)=O)c(NC4CC4)n3)cc2)CC1` [Compound I HCl Form II, 4-(cyclopropylamino)-2-(4-(4-(ethylsulfonyl)piperazin-1-yl)phenylamino)pyrimidine-5-carboxamide], in series [5] (listed as Comp. I HCl (formed using dry HCl) Form II), the solubility worked out at 120 µg/mL. The “Form change on solubility analysis (XRPD post vs pre)” value in series [6] is given as “form change to Compound I HCl Form I”. Moreover, the “Form after slurry maturation (XRPD)” value is “conversion to Compound I Form I” in series [7] (IMA); “conversion to Compound I Form I, yet retains some mixed features” in series [7] (IPA); “mixture of Compound I Form I, Compound I Form II, and possibly other forms” in series [7] (acetonitrile and EtOAc).
